Experimental data reported in patent US20240360178A1, “MACROCYCLIC IMMUNOMODULATORS” (Bristol-Myers Squibb Company, priority 2021, published 2024).
Positions of bridges follow the written chain, without caps; N, C: chain ends. Non-standard residues stand in square brackets, D forms with d. Residues, ends and D or L forms follow the SMILES beside them. ξ: configuration not given here. *: point of attachment. Ala(indol-4-yl) = N[C@@H](Cc1cccc2[nH]ccc12)C(=O)O; Phe(4-COOH) = N[C@@H](Cc1ccc(C(=O)O)cc1)C(=O)O; Phe(4-CH2NH2) = NCc1ccc(C[C@H](N)C(=O)O)cc1; Bip = N[C@@H](Cc1ccc(-c2ccccc2)cc1)C(=O)O; Phe(3-Me) = Cc1cccc(C[C@H](N)C(=O)O)c1; NMeY = CN[C@@H](Cc1ccc(O)cc1)C(=O)O; NMeF = CN[C@@H](Cc1ccccc1)C(=O)O; 4Pal = N[C@@H](Cc1ccncc1)C(=O)O; Cha = N[C@@H](CC1CCCCC1)C(=O)O; Cit = NC(=O)NCCC[C@H](N)C(=O)O; Carboxymethyl = O=C(O)C*; NMeA = CN[C@@H](C)C(=O)O; Nle = CCCC[C@H](N)C(=O)O; Orn = NCCC[C@H](N)C(=O)O; Dab = NCC[C@H](N)C(=O)O; ξV = CC(C)C(N)C(=O)O; Sar = CNCC(=O)O

Biological target: T1, human PD-1 (Jurkat-PD-1 cells) / PE-labeled human PD-L1-Ig (Homo sapiens, UniProt Q15116)
T1 construct: expressed in transfected cells; host or cells: Jurkat cell line over-expressing human PD-1
T1 sequence (Q15116 25-288): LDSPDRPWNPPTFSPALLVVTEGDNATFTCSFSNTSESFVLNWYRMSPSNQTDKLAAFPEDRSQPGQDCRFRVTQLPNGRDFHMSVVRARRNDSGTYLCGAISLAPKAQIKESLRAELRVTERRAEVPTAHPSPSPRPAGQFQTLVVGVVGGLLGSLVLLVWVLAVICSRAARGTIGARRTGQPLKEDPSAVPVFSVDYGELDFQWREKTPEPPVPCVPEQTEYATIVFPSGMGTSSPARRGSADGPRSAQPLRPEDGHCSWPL
Experiment: Jurkat-PD-1 Cell Binding High-Content Screening Assay (CBA); Jurkat hPD1-PDL1 assay
Conditions: Jurkat cell line over-expressing human PD-1; PE-labeled PD-L1-Ig 20 nM final; compound incubated 2 hours at 37° C.; read-out: Jurkat HPD1-PDL1 IC50
Outline: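 Cell binding by imaging: Jurkat line stably over-expressing human PD-1, compound pre-exposure 2 h at 37° C, PE-conjugated PD-L1-Ig 20 nM final, medium DMEM containing 10% FCS.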

For `Cc1cccc(C[C@@H]2NC(=O)[C@H](CC(=O)O)NC(=O)[C@H](Cc3ccc(OCC(=O)O)cc3)NC(=O)[C@H](Cc3ccc(OCC(=O)O)cc3)NC(=O)CSC[C@@H](C(=O)N[C@@H](C)C(N)=O)NC(=O)[C@H](CO)NC(=O)[C@H](C(C)C)NC(=O)[C@H](CC(C)C)NC(=O)[C@H](CC(N)=O)NC(=O)[C@H]3CCCN3C(=O)[C@H](C)N(C)C(=O)[C@H](C(C)C)NC(=O)[C@H](Cc3ccc(-c4ccccc4)cc3)NC(=O)[C@H](CC(C)C)NC2=O)c1` [Example 1437] ({CH2CO}-Y(Carboxymethyl)Y(Carboxymethyl)D[Phe(3-Me)]L[Bip]V[NMeA][dP]NLVSCA-NH2; thioether N-14), which IC50 is on record?
The IC50 was 30 nM.

Which IC50 does the source give for `CC(C)C[C@@H]1NC(=O)[C@H](CCN)NC(=O)[C@H](Cc2ccccc2)N(C)C(=O)[C@H](C)N(C)C(=O)[C@H](CCCNC(=N)N)NC(=O)[C@H](Cc2ccc(-c3ccccc3)cc2)NC(=O)[C@H](C(C)C)NC(=O)[C@H](Cc2c[nH]c3ccccc23)NC(=O)[C@H](CC(=O)O)NC(=O)[C@H](Cc2ccc(O)cc2)NC(=O)[C@H](Cc2ccccc2)NC(=O)CSC[C@@H](C(=O)N[C@@H](C)C(N)=O)NC(=O)[C@H](CO)NC(=O)[C@H](C(C)C)NC1=O` [Example 1304] ({CH2CO}-FYDWV[Bip]R[NMeA][NMeF][Dab]LVSCA-NH2; thioether N-14) here?
The IC50 was 60 nM.

How did the IC50 turn out when `Cc1cccc(C[C@@H]2NC(=O)[C@H](CC(=O)O)NC(=O)[C@H](Cc3ccc(C(=O)O)cc3)NC(=O)[C@H](Cc3ccc(OCC(=O)O)cc3)NC(=O)CSC[C@@H](C(=O)N[C@@H](C)C(N)=O)NC(=O)[C@H](CO)NC(=O)[C@H](C(C)C)NC(=O)[C@H](CC(C)C)NC(=O)[C@H](CC(N)=O)NC(=O)[C@H]3CCCN3C(=O)[C@H](C)N(C)C(=O)[C@H](C(C)C)NC(=O)[C@H](Cc3ccc(-c4ccccc4)cc3)NC(=O)[C@H](CC(C)C)NC2=O)c1` [Example 1436] ({CH2CO}-Y(Carboxymethyl)[Phe(4-COOH)]D[Phe(3-Me)]L[Bip]V[NMeA][dP]NLVSCA-NH2; thioether N-14) was run?
The IC50 was 40 nM.

Which IC50 does the source give for `CC(C)C[C@@H]1NC(=O)[C@H](CCCNC(=N)N)NC(=O)[C@H](Cc2ccccc2)N(C)C(=O)[C@H](C)N(C)C(=O)[C@H](CCC(=O)O)NC(=O)[C@H](Cc2ccc(-c3ccccc3)cc2)NC(=O)[C@H](C(C)C)NC(=O)[C@H](Cc2c[nH]c3ccccc23)NC(=O)[C@H](CC(=O)O)NC(=O)[C@H](Cc2ccc(O)cc2)NC(=O)[C@H](Cc2cnc[nH]2)NC(=O)CSC[C@@H](C(=O)NCC(N)=O)NC(=O)[C@H](CO)NC(=O)[C@H](C(C)C)NC1=O` [Example 1288] ({CH2CO}-HYDWV[Bip]E[NMeA][NMeF]RLVSCG-NH2; thioether N-14) here?
Its IC50 is 80 nM.

How did the IC50 turn out when `CC(C)C[C@@H]1NC(=O)[C@H](CCCNC(=N)N)NC(=O)[C@H](Cc2ccccc2)N(C)C(=O)[C@H](C)N(C)C(=O)[C@H](CCCNC(=N)N)NC(=O)[C@H](Cc2ccc(-c3ccccc3)cc2)NC(=O)[C@H](C(C)C)NC(=O)[C@H](Cc2c[nH]c3ccccc23)NC(=O)[C@H](CC(=O)O)NC(=O)[C@H](Cc2ccc(O)cc2)NC(=O)[C@H](CCC(N)=O)NC(=O)CSC[C@@H](C(=O)NCC(N)=O)NC(=O)[C@H]([C@@H](C)O)NC(=O)[C@H](C(C)C)NC1=O` [Example 1311] ({CH2CO}-QYDWV[Bip]R[NMeA][NMeF]RLVTCG-NH2; thioether N-14) was run?
The IC50 was 750 nM.

Which IC50 does the source give for `CC(C)C[C@@H]1NC(=O)[C@H](CCCNC(=N)N)NC(=O)[C@H](Cc2ccccc2)N(C)C(=O)[C@H](C)N(C)C(=O)[C@H](CCCNC(=N)N)NC(=O)[C@H](Cc2ccc(-c3ccccc3)cc2)NC(=O)[C@H](C(C)C)NC(=O)[C@H](Cc2c[nH]c3ccccc23)NC(=O)[C@H](CC(=O)O)NC(=O)[C@H](Cc2ccncc2)NC(=O)[C@H](CC(N)=O)NC(=O)CSC[C@@H](C(=O)N[C@@H](C)C(N)=O)NC(=O)[C@H]([C@@H](C)O)NC(=O)[C@H](C(C)C)NC1=O` [Example 1349] ({CH2CO}-N[4Pal]DWV[Bip]R[NMeA][NMeF]RLVTCA-NH2; thioether N-14) here?
The IC50 was 330 nM.

`CC(C)C1NC(=O)[C@H](Cc2c[nH]c3ccccc23)NC(=O)[C@H](CC(=O)O)NC(=O)[C@H](Cc2ccc(C(=O)O)cc2)NC(=O)[C@H](Cc2ccncc2)NC(=O)CSC[C@@H](C(=O)N[C@@H](C)C(N)=O)NC(=O)[C@H]([C@@H](C)O)NC(=O)[C@H](C(C)C)NC(=O)[C@H](CC2CCCCC2)NC(=O)[C@H](CCN)NC(=O)[C@H](Cc2ccc(O)cc2)N(C)C(=O)[C@H](CCCN)NC(=O)[C@H](CCC(=O)O)NC(=O)[C@H](Cc2ccc(-c3ccccc3)cc2)NC1=O` (stereo partly drawn) [Example 1450] ({CH2CO}-[4Pal][Phe(4-COOH)]DW[ξV][Bip]E[Orn][NMeY][Dab][Cha]VTCA-NH2; thioether N-14) was tested. Which IC50 did it give?
The IC50 was 210 nM.

`CCCC[C@@H]1NC(=O)[C@H](C(C)C)NC(=O)[C@H](Cc2ccccc2)N(C)C(=O)[C@H](CC(=O)O)NC(=O)[C@H](CCCNC(=N)N)NC(=O)[C@H](Cc2ccc(-c3ccccc3)cc2)NC(=O)[C@H](C(C)C)NC(=O)[C@H](Cc2c[nH]c3ccccc23)NC(=O)[C@H](CC(=O)O)NC(=O)[C@H](Cc2ccc(O)cc2)NC(=O)[C@H](Cc2ccccc2)NC(=O)CSC[C@@H](C(=O)NCC(N)=O)NC(=O)[C@H](CO)NC(=O)[C@H](C(C)C)NC1=O` [Example 1227] ({CH2CO}-FYDWV[Bip]RD[NMeF]V[Nle]VSCG-NH2; thioether N-14) was tested. Which IC50 did it give?
The IC50 was 650 nM.

`CC(C)C[C@@H]1NC(=O)[C@H](Cc2c[nH]c3ccccc23)NC(=O)[C@H](CC(=O)O)NC(=O)[C@H](Cc2ccc(CN)cc2)NC(=O)[C@H](Cc2ccccc2)NC(=O)CSC[C@@H](C(=O)N[C@@H](C)C(N)=O)NC(=O)[C@H](CO)NC(=O)[C@H](C(C)C)NC(=O)[C@H](CC(C)C)NC(=O)[C@H](CC(N)=O)NC(=O)[C@H]2CCCN2C(=O)[C@H](C)N(C)C(=O)[C@H](C(C)C)NC(=O)[C@H](Cc2ccc(-c3ccccc3)cc2)NC1=O` [Example 1040] ({CH2CO}-F[Phe(4-CH2NH2)]DWL[Bip]V[NMeA][dP]NLVSCA-NH2; thioether N-14) was tested. Which IC50 did it give?
The IC50 was 70 nM.

For `CC(C)C[C@@H]1NC(=O)[C@H](CCCNC(=N)N)NC(=O)[C@H](Cc2ccccc2)N(C)C(=O)[C@H](C)N(C)C(=O)[C@H](CCC(=O)O)NC(=O)[C@H](Cc2ccc(-c3ccccc3)cc2)NC(=O)[C@H](C(C)C)NC(=O)[C@H](Cc2c[nH]c3ccccc23)NC(=O)[C@H](CC(=O)O)NC(=O)[C@H](Cc2ccc(O)cc2)NC(=O)[C@H](Cc2ccccc2)NC(=O)CSC[C@@H](C(=O)N[C@@H](C)C(N)=O)NC(=O)[C@H]([C@@H](C)O)NC(=O)[C@H](C(C)C)NC1=O` [Example 1344] ({CH2CO}-FYDWV[Bip]E[NMeA][NMeF]RLVTCA-NH2; thioether N-14), which IC50 is on record?
The IC50 was 220 nM.

How did the IC50 turn out when `CC(C)C[C@@H]1NC(=O)[C@H](Cc2cccc3[nH]ccc23)NC(=O)[C@H](CC(=O)O)NC(=O)[C@H](Cc2ccc(O)cc2)NC(=O)[C@H](Cc2ccccc2)NC(=O)CSC[C@@H](C(=O)N[C@@H](C)C(N)=O)NC(=O)[C@H](CO)NC(=O)[C@H](C(C)C)NC(=O)[C@H](CC(C)C)NC(=O)[C@H](CC(N)=O)NC(=O)CN(C)C(=O)[C@H](C)N(C)C(=O)[C@H](C(C)C)NC(=O)[C@H](Cc2ccc(-c3ccccc3)cc2)NC1=O` [Example 1124] ({CH2CO}-FYD[Ala(indol-4-yl)]L[Bip]V[NMeA][Sar]NLVSCA-NH2; thioether N-14) was run?
The IC50 was 450 nM.

How did the IC50 turn out when `CC(C)C[C@@H]1NC(=O)[C@H](CCCNC(=N)N)NC(=O)[C@H](Cc2ccccc2)N(C)C(=O)[C@H](CCCNC(N)=O)NC(=O)[C@H](CCCNC(=N)N)NC(=O)[C@H](Cc2ccc(-c3ccccc3)cc2)NC(=O)[C@H](C(C)C)NC(=O)[C@H](Cc2c[nH]c3ccccc23)NC(=O)[C@H](CC(=O)O)NC(=O)[C@H](Cc2ccc(O)cc2)NC(=O)[C@H](Cc2ccccc2)NC(=O)CSC[C@@H](C(=O)NCC(N)=O)NC(=O)[C@H](CO)NC(=O)[C@H](C(C)C)NC1=O` [Example 1276] ({CH2CO}-FYDWV[Bip]R[Cit][NMeF]RLVSCG-NH2; thioether N-14) was run?
Its IC50 is 840 nM.

With `CC(C)C[C@@H]1NC(=O)[C@H](CCN)NC(=O)[C@H](Cc2ccccc2)N(C)C(=O)[C@H](C)N(C)C(=O)[C@H](CCCNC(=N)N)NC(=O)[C@H](Cc2ccc(-c3ccccc3)cc2)NC(=O)[C@H](C(C)C)NC(=O)[C@H](Cc2c[nH]c3ccccc23)NC(=O)[C@H](CC(=O)O)NC(=O)[C@H](Cc2ccc(O)cc2)NC(=O)[C@H](CCC(N)=O)NC(=O)CSC[C@@H](C(=O)N[C@@H](C)C(N)=O)NC(=O)[C@H](CO)NC(=O)[C@H](C(C)C)NC1=O` [Example 1307] ({CH2CO}-QYDWV[Bip]R[NMeA][NMeF][Dab]LVSCA-NH2; thioether N-14) as the molecule, how does the IC50 read?
Its IC50 is 170 nM.

Which IC50 does the source give for `CC(C)C[C@@H]1NC(=O)[C@H](CCCNC(=N)N)NC(=O)[C@H](Cc2ccccc2)N(C)C(=O)[C@H]2CCCN2C(=O)[C@H](CCCNC(=N)N)NC(=O)[C@H](Cc2ccc(-c3ccccc3)cc2)NC(=O)[C@H](C(C)C)NC(=O)[C@H](Cc2c[nH]c3ccccc23)NC(=O)[C@H](CC(=O)O)NC(=O)[C@H](Cc2ccc(O)cc2)NC(=O)[C@H](CC(N)=O)NC(=O)CSC[C@@H](C(=O)N[C@@H](C)C(N)=O)NC(=O)[C@H]([C@@H](C)O)NC(=O)[C@H](C(C)C)NC1=O` [Example 1362] ({CH2CO}-NYDWV[Bip]R[dP][NMeF]RLVTCA-NH2; thioether N-14) here?
Its IC50 is 190 nM.

For `CC(C)C[C@@H]1NC(=O)[C@H](Cc2c[nH]c3ccccc23)NC(=O)[C@H](CC(=O)O)NC(=O)[C@H](Cc2ccc(O)cc2)NC(=O)[C@H](Cc2ccccc2)NC(=O)CSC[C@@H](C(=O)NCC(N)=O)NC(=O)[C@H]([C@@H](C)O)NC(=O)[C@H](C(C)C)NC(=O)[C@H](CC(C)C)NC(=O)[C@H](CCN)NC(=O)[C@H]2CCCN2C(=O)[C@H](C)N(C)C(=O)[C@H](C(C)C)NC(=O)[C@H](Cc2ccc(-c3ccccc3)cc2)NC1=O` [Example 1396] ({CH2CO}-FYDWL[Bip]V[NMeA][dP][Dab]LVTCG-NH2; thioether N-14), which IC50 is on record?
The IC50 was 70 nM.
